Assay results from patent US20110239327A1, “Nematicidal Effects of Cysteine Proteinases and Methods of Use Thereof to Treat Nematode Infestation” (priority 2007, published 2011).
“Also recorded” adds a separate entry of the source.

Columns and labels:
[1] = test system: M. incognita J2; assay: In vitro assay of M. incognita J2 present in soil mixtures; type: cell-based; conditions: Triton x-100 (1%), Milk (5%)
Protocol: The same procedure described above was used to determine the effect of the cysteine proteinases against M. incognita J2 present in soil mixtures. The following soil mixtures were used: fine and coarse sand, peat and fine/coarse sand and loam mix and fine/coarse sand. These soil mixtures were prepared at concentrations of 1:1, 1:3 and 1:6 and autoclaved at […] for 20 min. Peat and loam-mix were obtained from Rothamsted-Research. Soil mixtures were added to 24 well plates (0.5 g) and wetted for 16 hs with either PBS ph 7.2, Tx-100, Milk 5% or cysteine proteinases, in order to wet the soil and block non-specific binding sites present in the soil particles. Then, approximately 100 J2 were added to the wells, followed by cysteine proteinases with 16 mM of L-cysteine to activate the cysteine proteinases or water as control. After 16 hs at room temperature in the dark, individual wells of the 24 well plates were flushed with 1 ml of distilled water to recover the nematodes from the soil mixtures. These were placed in a 24 well plate and the number of dead/live nematodes scored under microscopic observation.
These in vitro experiments were performed in 24 well plates using sterile soil mixtures to diminish the possibility of biological degradation of the enzyme by microorganisms. […] The number of live nematodes was counted before and after enzyme treatment. […]

[2] = test system: Meloidogyne spp. J2s; assay: In vitro mobility of Meloidogyne spp. J2s exposed to plant cysteine proteinases; type: cell-based, M. incognita or M. javanica
Protocol: Eggs of M. incognita race 1 from North Carolina State University, USA, and M. javanica from Portugal were collected from the roots of infected tomato plants grown in a glasshouse at 23° C. in a 16:8 h light-dark regime. Eggs were extracted using 1% hypochlorite (NaClO) solution (Hussey and Barker, 1973) or by picking egg masses from the infected roots. M. incognita and M. javanica were both used in the experiments and produced similar results. Juveniles (J2) were hatched from the eggs and egg masses in water. Globodera rostochiensis cysts were washed extensively in distilled water. Hatched J2s were obtained by incubating cysts in distilled water for 4 days followed by exposure to potato root diffusate (PRD).
Approximately 1000 J2s (second juvenile stage) of M. incognita or M. javanica were incubated per well of a 48-well plate with the following active enzyme concentrations (determined by E-64 titration) of papain dissolved in distilled water containing 16 mM L-cysteine (to activate the cysteine proteinase): 1.5 μM, 3 μM, 6.25 μM, 12.5 μM, 25 μM, 50 μM, 75 μM and 100 μM. […] The number of active J2s per well was counted prior to the addition of papain, and then the J2s were incubated in the dark at room temperature for 3 h. The number of mobile J2s per well was counted after 60, 120 and 180 mins. […]

[3] = test system: M. incognita J2; assay: In vitro live/dead count of M. incognita J2 in solution without soil (Example 2); type: cell-based
Protocol: Eggs of M. incognita race 1 from North Carolina State University, USA were collected from tomato-infected roots grown in a glasshouse at 23° C. in a 16:8 h light-dark regime. Eggs were extracted using 1% hypochlorite (NaClO) solution (Hussey and Barker, 1973) or by picking egg masses from tomato-infected roots. Juveniles (J2) were hatched from the eggs and egg masses in water. Heterodera glycines eggs were obtained from soil samples stored in Rothamsted-Research. Second stage juveniles (J2) were hatched from the eggs in water after 10 days. Pratylenchus penetrans were a gift from Dr. Deeren Anne-Marie from the Institute for Agricultural and Fisheries Research, Merelbeke, Belgium. The beneficial nematodes Steinernema feltiae and Heterorhabditis megidis were a gift from Dr. Paul Williams from Becker Underwood. […]
Control wells were set up which contained J2s and distilled water with 16 mM L-cysteine. […] The actual number of active J2s per well was counted with the aid of an Olympus inverted microscope, prior to the addition of the enzymes, and then the J2s were incubated in the dark at room temperature for 2 hs, 16 hs, 24 hs or 40 hr. The number of live and dead J2s per well was counted after each enzyme incubation. […]

[4] = test system: Pratylenchus penetrans; assay: In vitro live/dead count of Pratylenchus penetrans; type: cell-based
Protocol: (§1) Eggs of M. incognita race 1 from North Carolina State University, USA were collected from tomato-infected roots grown in a glasshouse at 23° C. in a 16:8 h light-dark regime. Eggs were extracted using 1% hypochlorite (NaClO) solution (Hussey and Barker, 1973) or by picking egg masses from tomato-infected roots. Juveniles (J2) were hatched from the eggs and egg masses in water. Heterodera glycines eggs were obtained from soil samples stored in Rothamsted-Research. Second stage juveniles (J2) were hatched from the eggs in water after 10 days. Pratylenchus penetrans were a gift from Dr. Deeren Anne-Marie from the Institute for Agricultural and Fisheries Research, Merelbeke, Belgium. The beneficial nematodes Steinernema feltiae and Heterorhabditis megidis were a gift from Dr. Paul Williams from Becker Underwood.
Control wells were set up which contained J2s and distilled water with 16 mM L-cysteine. Each enzyme concentration and the controls were set up in duplicate (i.e. n=2). […] The number of live and dead J2s per well was counted after each enzyme incubation. The same procedure was followed when setting up further experiments to compare the effects of these enzymes with Heterodera glycines J2, Pratylenchus penetrans, Steinernema feltiae and Heterorhabditis megidis.

[5] = test system: Heterorhabditis megidis; assay: In vitro effect on the beneficial nematode Heterorhabditis megidis; type: cell-based
Protocol: as §1
Control wells were set up which contained J2s and distilled water with 16 mM L-cysteine. Each enzyme concentration and the controls were set up in duplicate (i.e. n=2). The actual number of active J2s per well was counted with the aid of an Olympus inverted microscope, prior to the addition of the enzymes, and then the J2s were incubated in the dark at room temperature for 2 hs, 16 hs, 24 hs or 40 hr. The number of live and dead J2s per well was counted after each enzyme incubation. The same procedure was followed when setting up further experiments to compare the effects of these enzymes with Heterodera glycines J2, Pratylenchus penetrans, Steinernema feltiae and Heterorhabditis megidis.
The beneficial nematodes Hetorhabditis megidis and Steinernema feltiae were incubated with dilutions of actinidin, bromelain and pappain from papaya latex (see concentrations used in table 3). These nematodes reacted differentially to these cysteine proteinases (Tables 4 and 5). […] S. feltiae were dead at all concentrations of actinidin tested. […] After 16 hs of observation the enzyme solutions were diluted with water (to half of the initial concentrations) however, no change in nematode movement was observed after 24 hs.

[6] = test system: Steinernema feltiae; assay: In vitro effect on the beneficial nematode Steinernema feltiae; type: cell-based
Protocol: as §1
Control wells were set up which contained J2s and distilled water with 16 mM L-cysteine. Each enzyme concentration and the controls were set up in duplicate (i.e. n=2). The actual number of active J2s per well was counted with the aid of an Olympus inverted microscope, prior to the addition of the enzymes, and then the J2s were incubated in the dark at room temperature for 2 hs, 16 hs, 24 hs or 40 hr. The number of live and dead J2s per well was counted after each enzyme incubation. […]

[7] = test system: M. incognita J2; assay: In planta bioassay, two soil applications: nematode infection of tomato roots; type: in vivo, M. incognita on tomato plants
Protocol: Oxamyl is supplied as 10% liquid Vydate. 125 μl of a solution 1000 fold dilution of 10% formulation (kindly supplied by DK from NIU) was applied to 5 g of the soil mixture with 16% organic matter, to give a partial nematicidal effect. Soil mixtures were wetted with PBS pH 7.2, 16 hrs prior nematode application of 1000 or 2000 M. incognita J2. Infected soil mixtures were treated with water (control) or 250 μM of active papain in 16 mM of L-cysteine or a combination of Vydate and 250 μM of active papain in 16 mM of L-cysteine. After 48 hs tomato seedlings one month old were added to the treated soils. After 11 days the roots were washed free of soil and chopped to approximately 2 mm pieces. The root pieces of each tomato plant was placed in muslin bags and stained with acid-fuchsin. The stained roots were examined under microscope and all the nematodes present in the roots were counted. […] After 48 hours tomato seedlings one month old were added to the treated soils and after 11 days post infection nematode development inside root tissues was assessed as described above.
The avermectins are macrocyclic lactones produced by the actinomycete Streptomyces avermitilis. […] After 48 hs tomato seedlings one month old were added to the treated soils and after 11 days post infection nematode development inside root tissues was assessed as described above. […]

[8] = test system: larvae in infected soil; conditions: cited from earlier work

In the case of Triton x-100, the “effect of blocking agents on nematode mobility” value [1] is reported as “slightly affected nematode mobility”.
For CC(C)C[C@H](NC(=O)[C@H]1O[C@@H]1C(=O)O)C(=O)NCCCCN=C(N)N (relative stereo) [E-64, L-trans-epoxysuccinyl-leucylamido(4-guanidino)butane, reference compound], the “proportion of active worms on addition of E-64” value ([2]; 1 mM E-64, J2s incubated without enzyme) was “No change in the proportion of active worms”.
In the case of stem bromelain, the “proportion of active Meloidogyne spp. J2s relative to control” value ([2]; 25 μM active enzyme) is reported as “significant reduction; also recorded: Reductions in the proportion of active worms were evident”, the recovery of movement ([3]; after 40 hs of observation, at the nematicidal concentration) is reported as “not able to recover movement” and the “concentration of active bromelain with nematicidal effect” value ([3]; in solution without soil) is reported as 1 mM. For the same compound, the “concentration of bromelain that killed the nematodes” value [4] was 560 µM, the recovery of mobility ([4]; after 48 hs) was “no recovery of mobility” and the “nematode motility or behaviour” value ([5]; enzyme concentration A (Table 3): actinidin 3.3 mM, bromelain 2.2 mM, papain 250 uM) was “All paralysed”. The “nematode motility or behaviour” value ([5]; enzyme concentration B: actinidin 1.7 mM, bromelain 1.1 mM, papain 125 uM) was “All paralysed”, the “nematode motility or behaviour” value ([5]; enzyme concentration C: actinidin 840 uM, bromelain 560 uM, papain 62.5 uM) was “All paralysed” and the “effect on H. megidis” value ([5]; higher concentrations) was “paralysed”. The “effect on H. megidis” value ([5]; lower concentrations) was “only affected slightly”, the “bromelain concentrations at which no effect was observed” value [6] was “below 280 uM” and the “effect on S. feltiae movement” value ([6]; high concentrations of bromelain) was “affected S. feltiae movement slightly”. For the same compound, the “reduction of nematode infection of plants” value ([7]; two soil applications of enzyme (250 μM papain, 2.2 μM bromelain, 3.3 mM actinidin as printed), soil 16% organic matter, 11 days) was 95%.
For Abamectin, the “nematicidal effect (reduction of nematode infection)” value ([7]; nematicide alone, no enzyme) is given as 94%, the larvae development allowed ([8]; 300 μl of abamectin solution (100 mg/l) to 50 g of infected soil) is given as 0% and the “larvae allowed to develop” value ([8]; 2000 (so in the source) of abamectin solution (100 mg/l) to 50 g of infected soil) is given as 75%.
